Assay results as given in the supplement of paper PMC10307832.

Key:
Assay in all cases: relative viability (nuclei count vs DMSO), 5 days (fraction); higher = more cells survive
[1] = compound: C1CSC2=C(C(=O)N1)SC3=C2C=C(C=C3)O [kb NB 142-70] + O=C(CCCCCCC(=O)Nc1ccccc1)NO [Vorinostat] (partner 1 µM)
Summary of the method: (§1)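 The day after seeding in 1536-well plates, lung cancer cell lines were treated by pin tool with a single drug, or with a fixed anchor-drug dose together with five library-drug doses (not always all listed) in √10 steps. After 5 days, a combined fix-and-stain solution (final 0.05% Triton X-100, 1% formaldehyde, 1 ug/ml Hoechst) was added. Nuclei counted on 4× images gave relative viability as treated counts over vehicle counts, reported as the median of duplicate plates.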

[2] = compound: NCC(=O)Nc1ccc(-n2nc(C(F)(F)F)cc2-c2ccc3c(ccc4ccccc43)c2)cc1 + O=C(CCCCCCC(=O)Nc1ccccc1)NO [Vorinostat] (partner 1 µM)
Summary of the method: as §1

[3] = compound: NCC(=O)Nc1ccc(-n2nc(C(F)(F)F)cc2-c2ccc3c(ccc4ccccc43)c2)cc1 + O=C(c1cc(Cc2n[nH]c(=O)c3ccccc23)ccc1F)N1CCN(C(=O)C2CC2)CC1 [Olaparib] (partner 8 µM)
Summary of the method: as §1

[4] = compound: NCC(=O)Nc1ccc(-n2nc(C(F)(F)F)cc2-c2ccc3c(ccc4ccccc43)c2)cc1 + Nc1ncn([C@H]2C[C@H](O)[C@@H](CO)O2)c(=O)n1 [Decitabine] (partner 2 µM)
Summary of the method: as §1

Cell Line | relative viability ([1]; first compound 0.1 µM) | relative viability ([1]; first compound 1 µM) | relative viability ([1]; first compound 3.162 µM) | relative viability ([2]; first compound 0.02 µM) | relative viability ([2]; first compound 0.06325 µM) | relative viability ([2]; first compound 0.2 µM) | relative viability ([2]; first compound 0.6325 µM) | relative viability ([2]; first compound 2 µM) | relative viability ([3]; first compound 0.02 µM) | relative viability ([3]; first compound 0.06325 µM) | relative viability ([3]; first compound 0.2 µM) | relative viability ([3]; first compound 0.6325 µM) | relative viability ([3]; first compound 2 µM) | relative viability ([4]; first compound 0.02 µM) | relative viability ([4]; first compound 0.06325 µM) | relative viability ([4]; first compound 0.2 µM) | relative viability ([4]; first compound 0.6325 µM) | relative viability ([4]; first compound 2 µM)
LCLC-97TM1 | 0.82 | 0.773 | 0.515 | 0.596 | 0.713 | 0.699 | 0.69 | 0.637 | 0.538 | 0.421 | 0.317 | 0.409 | 0.364 | 0.237 | 0.24 | 0.252 | 0.19 | 0.221
EPLC-272H | 0.597 | 0.273 | 0.155 | 0.354 | 0.538 | 0.491 | 0.573 | 0.501 | 0.731 | 0.699 | 1.05 | 0.848 | 0.851 | 0.382 | 0.35 | 0.331 | 0.423 | 0.372
NCI-H2342 | 0.858 | 0.782 | 0.649 | 0.871 | 0.817 | 0.663 | 0.864 | 0.743 | 0.623 | 0.477 | 0.434 | 0.447 | 0.422 | 0.653 | 0.775 | 0.788 | 0.709 | 0.744
NCI-H1915 | 0.559 | 0.565 | 0.45 | 0.525 | 0.555 | 0.56 | 0.497 | 0.552 | 0.256 | 0.287 | 0.25 | 0.255 | 0.257 | 0.272 | 0.275 | 0.276 | 0.262 | 0.256
NCI-H2405 | 1.04 | 1.03 | 0.587 | 1.08 | 1.11 | 1.1 | 1.01 | 1.16 | 0.873 | 0.89 | 0.863 | 0.857 | 0.919 | 0.686 | 0.759 | 0.837 | 0.723 | 0.754
NCI-H322M | 0.942 | 1.06 | 0.926 | 0.993 | 0.957 | 0.836 | 0.927 | 0.984 | 0.865 | 0.759 | 0.782 | 0.802 | 0.794 | 0.723 | 0.732 | 0.716 | 0.637 | 0.724
NCI-H2170 | 0.823 | 0.86 | 0.744 | 0.9 | 0.926 | 0.849 | 0.826 | 0.823 | 0.689 | 0.638 | 0.62 | 0.673 | 0.605 | 0.496 | 0.454 | 0.518 | 0.446 | 0.45
NCI-H522 | 0.983 | 0.835 | 0.794 | 0.91 | 0.836 | 0.802 | 0.973 | 0.903 | 0.666 | 0.777 | 0.721 | 0.685 | 0.656 | 0.638 | 0.619 | 0.673 | 0.681 | 0.608
NCI-H1395 | 0.7 | 0.748 | 0.701 | 0.761 | 0.82 | 0.686 | 0.646 | 0.924 | 0.483 | 0.469 | 0.469 | 0.519 | 0.437 | 0.667 | 0.735 | 0.673 | 0.692 | 0.738
NCI-H358 | 0.699 | 0.654 | 0.127 | 0.735 | 0.728 | 0.694 | 0.768 | 0.653 | 0.613 | 0.58 | 0.632 | 0.636 | 0.606 | 0.217 | 0.211 | 0.224 | 0.206 | 0.217
NCI-H838 | 0.782 | 0.77 | 0.778 | 0.772 | 0.708 | 0.857 | 0.681 | 0.728 | 0.853 | 0.766 | 0.815 | 0.592 | 0.572 | 0.489 | 0.494 | 0.504 | 0.441 | 0.335
